In patent publication US20160074467A1, “TREATMENT OF AGING EFFECTS BY GONADOTROPIN-RELEASING HORMONE, NEUROGENESIS OR BRAIN IKK BETA/NF-KAPPAB INHIBITION” (ALBERT EINSTEIN COLLEGE OF MEDICINE, INC., priority 2013, published 2016):
Ends that are not written are not given here.

Tests used:
[1] = tested on: aging physiology and histology; experiment: Daily subcutaneous GnRH therapy: aging physiology and histology (muscle endurance, skeletal muscle fibers, dermal thickness); format: in vivo, C57BL/6 mice
Method: (§1) For animal GnRH therapy, mice were subcutaneously injected with GnRH (Sigma) at the dose of 2 ng per mouse on a daily basis for a period of 5-8 weeks. The Institutional Animal Care and Use Committee at the Albert Einstein College of Medicine approved all the procedures. Body weight and food intake were measured regularly using a laboratory scale. The grip test was performed to measure muscle endurance using the method as similarly described in the literature^36,37, using a homemade square grid with a small mesh size to allow mice to hang for longer time. In brief, a mouse was lifted by the tail and placed on a homemade square grid (1-cm mesh size). The grid was then inverted 30.5 cm over a soft pad, and the mouse was allowed to hang by paws for a maximum of 5 min. The time that the mouse was able to hang was recorded during a 5-min test period.
Tissue histology. Skeletal muscles (quadriceps) and dorsal skin were dissected from mice, fixed in 10% neutralized formalin at 4° C. overnight, and embedded into paraffin. Paraffin sections were prepared at 5-μm thickness and subjected to haematoxylin and eosin staining. Images were collected using an Axioskop II light microscope (Zeiss) and analyzed using Image J.

[2] = tested on: aging-related cognitive decline; experiment: Daily subcutaneous GnRH therapy: cognition; format: in vivo, C57BL/6 mice; conditions: old MBH-ctrl and MBH-IKK-β mice; peripheral (s.c.) GnRH daily, 5 weeks; FIG. 6i
Method: as §1
Cognitive behavioral tests. […]
Hidden-platform training. […] Mice were expected to find the location of the invisible platform, and measured for latency to reach the platform, distance travelled to reach the platform, path efficiency, time spent in and distance travelled in each quadrant as well as total distance and mean swim speed.
Probe trial. […] Mice were measured for the amount of time spent in all quadrants, distance and number of times that mice crossed the location of the former platform, and total distance and mean swim speed. […]

[3] = tested on: neurogenesis in the MBH and dentate gyrus; experiment: BrdU labelling neurogenesis assay with i.c.v. GnRH in old mice; format: in vivo; conditions: old C57BL/6 mice; GnRH 1 ng per day i.c.v. (third ventricle); single BrdU injection, 7 days; vs vehicle; FIG. 6a-c
Method: (§2) Immunostaining, histology and western blot. Mice under anaesthesia were perfused with 4% paraformaldehyde, and brains were removed, post-fixed in 4% paraformaldehyde, and infiltrated in 20-30% sucrose. Brain sections were made at 10-μm thickness via a cryostat, blocked with serum, penetrated with Triton-X 100, treated overnight at 4° C. with primary antibody, followed by reaction with fluorescence-conjugated secondary antibody (Jackson), and imaged under a confocal microscope. For BrdU staining, sections were pre-treated with 1 M HCl for 30 min at 37° C., followed by 5-min treatment with 0.1 M sodium borate, pH 8.5. Primary antibodies included rabbit anti-Iba-1 (Wako), rabbit anti-GFAP (Millipore), mouse anti-TNF-α (Abcam), mouse anti-NeuN (Millipore), and goat anti-Cre antibody (Santa Cruz). For Nissl staining, freshly isolated mice brains were fixed in 4% paraformaldehyde in PBS for overnight at 4° C. The fixed whole brains were then subjected to cryosectioning coronally, and frozen sections were stained to detect Nissl body by using the NovaUltra Nissl stain kit (IHCWORLD) according to the manufacturer's instruction.
(§3) Serial brain sections across the MBH were made at 20 μm thickness, and every five sections were represented by one section with staining and cell counting. […]

[4] = tested on: BrdU-labelled cells in the MBH and dentate gyrus; experiment: BrdU labelling survival assay with i.c.v. GnRH in old mice; format: in vivo; conditions: old C57BL/6 mice; GnRH 1 ng per day i.c.v.; 7 days of daily BrdU injections, thirty-day tracking; FIG. 6d, e
Method: as §2, §3

## gonadotropin-releasing hormone (QHWSYGLRPG; ends and bridges not checked; UniProt P01148 24-33, looked up) [GnRH, gonadotropin-releasing hormone (GnRH), obtained from Sigma]
[1]; MBH-IκB-α mice treated with GnRH, data not shown
  anti-aging phenotype: did not further enhance the anti-aging phenotype
[1]; old MBH-IKK-β mice, GnRH 2 ng per mouse s.c. daily, 5 weeks, FIG. 6f-h
  pro-aging phenotype (muscle endurance, muscle fibers, dermal thickness): abrogated the pro-aging phenotype
[1]; old MBH-ctrl mice, GnRH 2 ng per mouse s.c. daily, 5 weeks, FIG. 6f-h
  magnitude of aging histology (muscle endurance, muscle fibers, dermal thickness): reduced the magnitude of aging histology
[2]
  aging-related cognitive decline: amelioration of aging-related cognitive decline
[3]
  aging-diminished neurogenesis (BrdU-labelled cells in hypothalamus and hippocampus): substantially reversed
[4]
  survival of BrdU-labelled cells in MBH and dentate gyrus: significantly survived
